One test addresses FXR (Homo sapiens (Human), UniProt Q96RI1). Briefly: transient human FXR/Gal4-luciferase reporter assay. Format: cell-based.
Conditions: not given
In a few lines: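 HEK293 cells stably carrying a 5×Gal4 response element–firefly luciferase reporter were transiently transfected overnight with a Gal4 DBD–human FXR LBD fusion plasmid. Compound was added in DMSO and cells were incubated overnight at 37 °C, 5% CO2. Activity was read as Steady-Glo luminescence.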
For orientation: Reporter assays use an easily measured gene product as a stand-in for the process of interest.
Sequence of FXR (Q96RI1 262-486): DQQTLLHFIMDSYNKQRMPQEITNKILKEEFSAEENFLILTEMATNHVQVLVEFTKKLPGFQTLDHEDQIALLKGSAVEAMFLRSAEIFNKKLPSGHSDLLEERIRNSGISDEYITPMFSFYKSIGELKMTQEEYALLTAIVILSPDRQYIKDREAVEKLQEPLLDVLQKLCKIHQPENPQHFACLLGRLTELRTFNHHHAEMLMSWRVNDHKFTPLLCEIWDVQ
For orientation: EC50 means the concentration giving half of the maximal effect. Low readings indicate greater potency, high ones weaker potency. As for `CC(C)(O)c1ccc(-c2cccc(N(CC34CCC(c5noc(C(C)(C)F)n5)(CC3)CC4)C(=O)NCC3(S(C)(=O)=O)CC3)c2)cc1` [Example 642], the EC50 was 294 nM.

In turn, `CCOc1ccc(-c2cccc(N(CC34CCC(c5ccc(C(F)(F)F)cn5)(CC3)CC4)C(=O)C34CC(F)(C3)C4)c2)cc1` [Example 489, N-(4′-ethoxy-[1,1′-biphenyl]-3-yl)-3-fluoro-N-((4-(5-(trifluoromethyl)pyridin-2-yl)bicyclo[2.2.2]octan-1-yl)methyl)bicyclo[1.1.1]pentane-1-carboxamide] registered an EC50 of 1640 nM.

In turn, `CCOc1ccc(-c2cccc(N(CC34CCC(c5ccc(C(F)(F)F)cn5)(CC3)CC4)C(=O)C34CC(F)(C3)C4)c2)cn1` [Example 492, N-(3-(6-ethoxypyridin-3-yl)phenyl)-3-fluoro-N-((4-(5-(trifluoromethyl)pyridin-2-yl)bicyclo[2.2.2]octan-1-yl)methyl)bicyclo[1.1.1]pentane-1-carboxamide] registered an EC50 of 567 nM.

The test is the same for the next values; noted with them: Gal4-hFXR fusion construct, HEK293 reporter cells; response relative to 8 μM GW-4064.
Consider `Cc1nc2ccc(-c3cccc(N(CC45CCC(c6cc(C7CC7)nn6C)(CC4)CC5)C(=O)C45CC(F)(C4)C5)c3)cc2s1` [Example 415, N-((4-(3-cyclopropyl-1-methyl-1H-pyrazol-5-yl)bicyclo[2.2.2]octan-1-yl)methyl)-3-fluoro-N-(3-(2-methylbenzo[d]thiazol-6-yl)phenyl)bicyclo[1.1.1]pentane-1-carb oxamide], for which the half-maximal effective concentration (EC50) came out at 125 nM.

Take `NS(=O)(=O)c1cccc(-c2cccc(N(CC34CCC(c5nc(C6CC6)no5)(CC3)CC4)C(=O)C34CC(F)(C3)C4)c2)c1` [Example 257, N-((4-(3-cyclopropyl-1,2,4-oxadiazol-5-yl)bicyclo[2.2.2]octan-1-yl)methyl)-3-fluoro-N-(3′-sulfamoyl-[1,1′-biphenyl]-3-yl)bicyclo[1.1.1]pentane-1-carboxamide]: the EC50 was 521 nM.

As to `CS(=O)(=O)Nc1ccc(-c2cccc(N(CC34CCC(c5cc(C(F)(F)F)ccn5)(CC3)CC4)C(=O)C34CC(F)(C3)C4)c2)cc1` [Example 355, 3-fluoro-N-(4′-(methylsulfonamido)-[1,1′-biphenyl]-3-yl)-N-((4-(4-(trifluoromethyl)pyridin-2-yl)bicyclo[2.2.2]octan-1-yl)methyl)bicyclo[1.1.1]pentane-1-carboxamide], the midpoint of the response, the EC50, lay at 780 nM.

Take `CCOc1ncc(-c2cccc(N(CC34CCC(c5ccc(C(F)(F)F)cn5)(CC3)CC4)C(=O)C34CC(F)(C3)C4)c2)cn1` [Example 487, N-(3-(2-ethoxypyrimidin-5-yl)phenyl)-3-fluoro-N-((4-(5-(trifluoromethyl)pyridin-2-yl)bicyclo[2.2.2]octan-1-yl)methyl)bicyclo[1.1.1]pentane-1-carboxamide]: the EC50 came out at 418 nM.

The compound `CCOc1ncc(-c2cccc(N(CC34CCC(c5nc(C6CC6)no5)(CC3)OC4)C(=O)C34CC(F)(C3)C4)c2)cn1` [Example 353, N-((1-(3-cyclopropyl-1,2,4-oxadiazol-5-yl)-2-oxabicyclo[2.2.2]octan-4-yl)methyl)-N-(3-(2-ethoxypyrimidin-5-yl)phenyl)-3-fluorobicyclo[1.1.1]pentane-1-carboxamide] gave an EC50 of 328 nM.

With `COc1ccc(-c2cccc(N(CC34CCC(c5nc(C6CC6)no5)(CC3)CC4)C(=O)C34CC(F)(C3)C4)c2)cn1` [Example 249, N-((4-(3-cyclopropyl-1,2,4-oxadiazol-5-yl)bicyclo[2.2.2]octan-1-yl)methyl)-3-fluoro-N-(3-(6-methoxypyridin-3-yl)phenyl)bicyclo[1.1.1]pentane-1-carboxamide], the midpoint of the response, the EC50, lay at 153 nM.

The compound `CC(C)Oc1ccc(-c2ccnc(N(CC34CCC(c5noc(C(C)(F)F)n5)(CC3)CC4)C(=O)OC(C)(C)C(F)(F)F)c2)cc1` [Example 610, 1,1,1-trifluoro-2-methylpropan-2-yl ((4-(5-(1,1-difluoroethyl)-1,2,4-oxadiazol-3-yl)bicyclo[2.2.2]octan-1-yl)methyl)(4-(4-isopropoxyphenyl)pyridin-2-yl)carbamate] displayed an EC50 of 47 nM.

In the case of `CC(C)(C#N)Oc1ccc(-c2ccnc(N(CC34CCC(c5noc(C6(F)CC6)n5)(CC3)CC4)C(=O)OC(C)(C)C(F)(F)F)c2)cc1` [Example 625, 1,1,1-trifluoro-2-methylpropan-2-yl(4-(4-((2-cyanopropan-2-yl)oxy)phenyl)pyridin-2-yl) ((4-(5-(1-fluorocyclopropyl)-1,2,4-oxadiazol-3-yl)bicyclo[2.2.2]octan-1-yl)methyl) carbamate], a half-maximal response (EC50) required 18 nM.

For `CC(C)(O)c1ccc(-c2cccc(N(CC34CCC(c5noc(C(F)(F)F)n5)(CC3)CC4)C(=O)NCC3CC4(CC4)C3)c2)cc1` [Example 614, 1-(4′-(2-hydroxypropan-2-yl)-[1,1′-biphenyl]-3-yl)-3-(spiro[2.3]hexan-5-ylmethyl)-1-((4-(5-(trifluoromethyl)-1,2,4-oxadiazol-3-yl)bicyclo[2.2.2]octan-1-yl)methyl)urea], the concentration for a half-maximal effect (EC50) is 171 nM.

For `CC(C)(O)Cn1cc(-c2cc(N(CC34CCC(c5noc(C(C)(F)F)n5)(CC3)CC4)C(=O)NC34CC(C3)C4)ccc2F)cn1` [Example 633, 3-(bicyclo[1.1.1]pentan-1-yl)-1-((4-(5-(1,1-difluoroethyl)-1,2,4-oxadiazol-3-yl)bicyclo[2.2.2]octan-1-yl)methyl)-1-(4-fluoro-3-(1-(2-hydroxy-2-methylpropyl)-1H-pyrazol-4-yl)phenyl)urea], the EC50 was 32 nM.

`Cc1cc(-c2cccc(N(CC34CCC(c5nc(C6CC6)no5)(CC3)CC4)C(=O)C34CC(F)(C3)C4)c2)nc2scnc12` [Example 327, N-((4-(3-cyclopropyl-1,2,4-oxadiazol-5-yl)bicyclo[2.2.2]octan-1-yl)methyl)-3-fluoro-N-(3-(7-methylthiazolo[5,4-b]pyridin-5-yl)phenyl)bicyclo[1.1.1]pentane-1-carboxamide]: the EC50 came out at 303 nM.

In the case of `CC(C)c1noc(C23CCC(CN(C(=O)C45CC(F)(C4)C5)c4cccc(-c5ccc(C(F)(F)F)nc5)c4)(CC2)CC3)n1` [Example 388, 3-fluoro-N-((4-(3-isopropyl-1,2,4-oxadiazol-5-yl)bicyclo[2.2.2]octan-1-yl)methyl)-N-(3-(6-(trifluoromethyl)pyridin-3-yl)phenyl)bicyclo[1.1.1]pentane-1-carboxamide], the EC50 came to 906 nM.

`CCOc1ncc(-c2cncc(N(CC34CCC(c5nc(C(C)(C)C)no5)(CC3)CC4)C(=O)C34CC(F)(C3)C4)c2)cn1` [Example 472, N-((4-(3-(tert-butyl)-1,2,4-oxadiazol-5-yl)bicyclo[2.2.2]octan-1-yl)methyl)-N-(5-(2-ethoxypyrimidin-5-yl)pyridin-3-yl)-3-fluorobicyclo[1.1.1]pentane-1-carboxamide]: the response was half-maximal at 758 nM (EC50).

Compound `CC1(c2nc(C34CCC(CN(C(=O)C56CC(F)(C5)C6)c5cccc(-c6ccc(OC(F)F)cc6)c5)(CC3)CC4)no2)CC1` [Example 405, N-(4′-(difluoromethoxy)-[1,1′-biphenyl]-3-yl)-3-fluoro-N-((4-(5-(1-methylcyclopropyl)-1,2,4-oxadiazol-3-yl)bicyclo[2.2.2]octan-1-yl)methyl)bicyclo[1.1.1]pentane-1-carboxamide] registered an EC50 of 53 nM.

For `CCOc1ncc(-c2cccc(N(CC34CCC(c5ccc(C6(C#N)CC6)cc5)(CC3)OC4)C(=O)C34CC(F)(C3)C4)c2)cn1` [Example 352, N-((1-(4-(1-cyanocyclopropyl)phenyl)-2-oxabicyclo[2.2.2]octan-4-yl)methyl)-N-(3-(2-ethoxypyrimidin-5-yl)phenyl)-3-fluorobicyclo[1.1.1]pentane-1-carboxamide], a half-maximal response (EC50) required 167 nM.

Turning to `CC(C)(O)c1ccc(-c2cccc(N(CC34CCC(c5nc(C6CC6)no5)(CC3)CC4)C(=O)OC(C)(C)C(F)(F)F)c2)cc1` [Example 623, 1,1,1-trifluoro-2-methylpropan-2-yl((4-(3-cyclopropyl-1,2,4-oxadiazol-5-yl)bicyclo[2.2.2]octan-1-yl)methyl)(4′-(2-hydroxypropan-2-yl)-[1,1′-biphenyl]-3-yl)carbamate], the EC50 was determined as 50 nM.

Turning to `CS(=O)(=O)Nc1ccc(-c2cccc(N(CC34CCC(c5nc(C6CC6)no5)(CC3)CC4)C(=O)C34CC(F)(C3)C4)c2)cc1` [Example 246, N-((4-(3-cyclopropyl-1,2,4-oxadiazol-5-yl)bicyclo[2.2.2]octan-1-yl)methyl)-3-fluoro-N-(4′-(methylsulfonamido)-[1,1′-biphenyl]-3-yl)bicyclo[1.1.1]pentane-1-carboxamide], the EC50 came to 66 nM.

With `O=C(N(CC12CCC(c3nc(C4CC4)no3)(CC1)CC2)c1cccc(-c2cc(C(F)(F)F)c3ncnn3c2)c1)C12CC(F)(C1)C2` [Example 263, N-((4-(3-cyclopropyl-1,2,4-oxadiazol-5-yl)bicyclo[2.2.2]octan-1-yl)methyl)-3-fluoro-N-(3-(8-(trifluoromethyl)-[1,2,4]triazolo[1,5-a]pyridin-6-yl)phenyl)bicyclo[1.1.1]pentane-1-carboxamide], the half-maximal effective concentration (EC50) came to 2710 nM.

In the case of `COc1cc(-c2cccc(N(CC34CCC(c5nnc(C)s5)(CC3)CC4)C(=O)C3CCCC3)c2)ccn1` [Example 233, N-(3-(2-methoxypyridin-4-yl)phenyl)-N-((4-(5-methyl-1,3,4-thiadiazol-2-yl)bicyclo[2.2.2]octan-1-yl)methyl)cyclopentanecarboxamide], a half-maximal response (EC50) required 1100 nM.

In turn, `COc1nccc(-c2cccc(N(CC34CCC(c5nc(C6CC6)no5)(CC3)CC4)C(=O)C3CCC3)c2)n1` [Example 244, N-((4-(3-cyclopropyl-1,2,4-oxadiazol-5-yl)bicyclo[2.2.2]octan-1-yl)methyl)-N-(3-(2-methoxypyrimidin-4-yl)phenyl)cyclobutanecarboxamide] displayed an EC50 of 576 nM.

In turn, `O=C1Cc2cc(-c3cccc(N(CC45CCC(c6nc(C7CC7)no6)(CC4)CC5)C(=O)C45CC(F)(C4)C5)c3)ccc2N1` [Example 332, N-((4-(3-cyclopropyl-1,2,4-oxadiazol-5-yl)bicyclo[2.2.2]octan-1-yl)methyl)-3-fluoro-N-(3-(2-oxoindolin-5-yl)phenyl)bicyclo[1.1.1]pentane-1-carboxamide] showed an EC50 of 158 nM.

The record behind these values is patent US11254663B2 (BRISTOL-MYERS SQUIBB COMPANY, priority 2019, dated 2022).
